# Like-named read-outs stand apart in the source and are kept apart here.
# Legend:
# [1] = Metabolism in liver homogenates; type: in vitro ADME; settings: in air, mouse liver homogenate, NADPH, pH 7.4, 37° C.
# Experimental: Metabolic stability of the compounds and unfavorable release of the drug by oxic liver can be assessed by using, for example, this assay. Freshly-excised mouse liver (approximately 1 g) was homogenised in 15 ml of ice-cold 50 mmol d-3 potassium phosphate buffer at pH 7.4. The homogenates were centrifuged at 1000 RPM for 10 min and the supernatants stored on ice. The metabolism of […] prodrug in air was performed with 0.5 ml liver homogenate (∫4 mg of protein by Bradford assay) with 100 μmol dm^−3 NADPH in 50 mmol dm^−3 potassium phosphate buffer at pH 7.4 incubated at 37° C. Samples (60 μl) were taken at regular intervals and added to an equivalent volume of acetonitrile, then mixed and centrifuged at 14, 300 RPM for 2 min prior to product analysis by HPLC. In this test the compound of Example 1 produced combretastatin A4 at a rate of only 3 pmol·min^−1·mg protein^−1. In contrast the corresponding compound 1-(4-methoxy-3-(5-nitrothiene-2-yl)methoxy)phenyl-2-(3,4,5-trimethoxy)phenyl-Z-ethene, lacking the key features of the invention produced combretastatin at a greater rate of 20 pmol·min^−1·mg proteins^−1.
# A549 cells = test: Cellular cytotoxicity (Celltiter 96 MTS assay); type: cell-based; settings: A549, 6 h exposure then 72 h incubation
# Source text: The cytotoxic or cytostatic properties of compounds of formula (1) and compounds of formula DrXH can be assessed for example, by use, for example, of this assay. The Celltiter 96® Aqueous One Solution Cell Proliferation Assay kit (Promega Corporation, USA) which is a colorimetric method for determining the number of viable cells in proliferation or cytotoxicity assays was used. In this assay the MTS tetrazolium compound (Owen's Reagent) is bioreduced by viable cells into a coloured formazan product which is soluble in tissue culture medium and can be measured by recording absorbance at 490 nm with a 96 well plate reader. A549 cells were seeded in Eagles Minimum Essential Medium supplemented with 10% foetal calf serum and non-essential amino acids at […] on a 96 well plate and allowed to attach for 24 h. Compounds were dissolved in DMSO and diluted with cell culture medium before addition. The cells were exposed to test compound (0 to 2 μmol dm^−3) for 6 h then incubated for a further 72 h. The MTS reagent was added to each well, left for 4 h, then the absorbance measured at 490 nm with a 96 well plate reader. In this assay the compound of Example 1 had no activity at concentrations up to […] whereas combretastatin A4 reduced cell numbers to 50% of control at a concentration of around 250 nM.
# [2] = target: T1, Supersomal p450 reductase (Homo sapiens, UniProt P16435); test: Drug release by cytochrome p450 reductase; type: biochemical; settings: NADPH, pH 7.4, 37° C.
# T1 construct: purchased Gentest P244
# T1 sequence (P16435 1-677): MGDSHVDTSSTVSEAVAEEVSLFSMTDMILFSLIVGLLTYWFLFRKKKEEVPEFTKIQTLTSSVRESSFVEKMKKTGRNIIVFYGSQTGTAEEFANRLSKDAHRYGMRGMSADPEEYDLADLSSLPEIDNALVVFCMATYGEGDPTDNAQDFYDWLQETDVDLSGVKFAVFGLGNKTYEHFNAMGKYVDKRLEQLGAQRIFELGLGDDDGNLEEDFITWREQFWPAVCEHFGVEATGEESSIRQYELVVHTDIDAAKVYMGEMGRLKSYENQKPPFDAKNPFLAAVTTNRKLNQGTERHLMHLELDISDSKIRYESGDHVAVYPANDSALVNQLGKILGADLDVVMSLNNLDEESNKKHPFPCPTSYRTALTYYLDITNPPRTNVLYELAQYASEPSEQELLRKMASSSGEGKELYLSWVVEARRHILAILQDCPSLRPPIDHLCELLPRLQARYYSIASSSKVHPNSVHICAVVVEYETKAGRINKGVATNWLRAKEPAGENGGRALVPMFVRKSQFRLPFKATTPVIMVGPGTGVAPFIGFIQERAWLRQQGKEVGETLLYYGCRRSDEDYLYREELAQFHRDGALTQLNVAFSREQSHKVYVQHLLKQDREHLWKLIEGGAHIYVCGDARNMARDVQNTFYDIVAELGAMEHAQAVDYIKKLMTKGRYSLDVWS
# Experimental: Cytochrome p450 reductase is widely expressed in human tumours as well as in a range of normal tissues and is one of a number of enzymes that can catalyse bioreduction. […] Compounds were dissolved in DMSO to a concentration of 625 μM and 20 μL added to a mixture of 50 mmol dm^−3 potassium phosphate buffer at pH 7.4 (2.4 mL), NADPH (20 μL of a 10 mM solution) and 60 μL of Supersomal™ p450 reductase (Gentest; Catalogue number P244) and incubated at 37° C. For experiments under nitrogen the mixture was degassed with nitrogen for 20 minutes prior to compound addition and overgassed with nitrogen during the incubation. Samples (100 μl) were taken at regular intervals and added to an equivalent volume of acetonitrile, then mixed and centrifuged at 14, 300 RPM for 2 min prior to product analysis by HPLC. In this test the compound of Example 1 produced combretastatin A4 at a rate of […]·min^−1·mg protein^−1 under nitrogen but only 110 pmol·min^−1·mg protein^−1 under air.
smiles,measurement,setting,value
"COc1ccc(/C=C\c2cc(OC)c(OC)c(OC)c2)cc1OCc1ccc([N+](=O)[O-])s1 [1-(4-methoxy-3-(5-nitrothiene-2-yl)methoxy)phenyl-2-(3,4,5-trimethoxy)phenyl-Z-ethene]",Rate of combretastatin A4 production,[1],20 pmol·min^−1·mg protein^−1
"CC(C)(Sc1ncnc2[nH]cnc12)c1ccc([N+](=O)[O-])cc1 [Example 4, 6-(2-(4-nitrophenyl)propan-2-ylsulfanyl)-9H-purine]",melting point,,206 to 208 °C
"COc1ccc(/C=C\c2cc(OC)c(OC)c(OC)c2)cc1O [combretastatin A4, reference compound]",IC50,A549 cells; read-out: Concentration reducing cell numbers to 50% of control,~250 nM
COc1ccc(/C=C\c2cc(OC)c(OC)c(OC)c2)cc1OC(C)(C)c1ccc([N+](=O)[O-])s1 [Example 1],IC50,"A549 cells; Homo sapiens, read-out: No activity at concentrations up to",> 2000 nM
same,Rate of combretastatin A4 production,[2]; under air,110 pmol·min^−1·mg protein^−1
same,Rate of combretastatin A4 production,[2]; under nitrogen,710 ppmol·min^−1·mg protein^−1

# Source: patent US20070099871A1, “Bioreductively-activated prodrugs” (ANGIOGENE PHARMACEUTICALS LIMITED, priority 2003, published 2007)
